Test results: ChEMBL document CHEMBL4184331 (J Med Chem, 2018)

How the values were obtained:
[1] = target: T1, Mineralocorticoid receptor (Homo sapiens, UniProt P08235)
T1 sequence (P08235 whole entry): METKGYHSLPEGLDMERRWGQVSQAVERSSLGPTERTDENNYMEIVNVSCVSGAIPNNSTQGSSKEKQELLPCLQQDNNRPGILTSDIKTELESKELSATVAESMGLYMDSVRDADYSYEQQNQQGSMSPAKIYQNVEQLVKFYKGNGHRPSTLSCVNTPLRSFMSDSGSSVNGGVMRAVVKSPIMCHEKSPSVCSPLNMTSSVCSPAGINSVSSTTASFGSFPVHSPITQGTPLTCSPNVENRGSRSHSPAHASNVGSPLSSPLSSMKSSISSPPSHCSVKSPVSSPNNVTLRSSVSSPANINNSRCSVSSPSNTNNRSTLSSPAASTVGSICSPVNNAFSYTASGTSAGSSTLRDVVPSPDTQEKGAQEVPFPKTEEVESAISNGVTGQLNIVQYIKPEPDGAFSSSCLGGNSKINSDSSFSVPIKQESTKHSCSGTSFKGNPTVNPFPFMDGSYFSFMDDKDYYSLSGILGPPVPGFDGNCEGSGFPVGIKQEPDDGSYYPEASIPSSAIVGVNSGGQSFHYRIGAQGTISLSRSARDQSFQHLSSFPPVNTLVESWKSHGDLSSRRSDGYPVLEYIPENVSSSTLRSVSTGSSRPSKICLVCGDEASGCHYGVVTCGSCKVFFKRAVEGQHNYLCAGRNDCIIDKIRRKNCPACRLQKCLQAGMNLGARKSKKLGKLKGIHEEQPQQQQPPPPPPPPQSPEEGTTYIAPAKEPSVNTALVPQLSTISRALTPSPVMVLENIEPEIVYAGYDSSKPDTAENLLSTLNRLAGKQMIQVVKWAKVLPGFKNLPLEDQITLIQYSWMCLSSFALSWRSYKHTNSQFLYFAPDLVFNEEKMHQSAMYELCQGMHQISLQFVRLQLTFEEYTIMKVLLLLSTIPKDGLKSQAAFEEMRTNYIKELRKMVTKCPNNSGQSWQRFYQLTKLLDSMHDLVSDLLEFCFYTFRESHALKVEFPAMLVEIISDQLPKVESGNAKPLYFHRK
Description: Induction of nuclear translocation of human recombinant ProLabel-tagged mineralocorticoid receptor expressed in CHO-K1 cells after 3 hrs by luminescence method

[2] = target: T2, Glucocorticoid receptor (Homo sapiens, UniProt P04150); experiment: biochemical
T2 sequence (P04150 whole entry): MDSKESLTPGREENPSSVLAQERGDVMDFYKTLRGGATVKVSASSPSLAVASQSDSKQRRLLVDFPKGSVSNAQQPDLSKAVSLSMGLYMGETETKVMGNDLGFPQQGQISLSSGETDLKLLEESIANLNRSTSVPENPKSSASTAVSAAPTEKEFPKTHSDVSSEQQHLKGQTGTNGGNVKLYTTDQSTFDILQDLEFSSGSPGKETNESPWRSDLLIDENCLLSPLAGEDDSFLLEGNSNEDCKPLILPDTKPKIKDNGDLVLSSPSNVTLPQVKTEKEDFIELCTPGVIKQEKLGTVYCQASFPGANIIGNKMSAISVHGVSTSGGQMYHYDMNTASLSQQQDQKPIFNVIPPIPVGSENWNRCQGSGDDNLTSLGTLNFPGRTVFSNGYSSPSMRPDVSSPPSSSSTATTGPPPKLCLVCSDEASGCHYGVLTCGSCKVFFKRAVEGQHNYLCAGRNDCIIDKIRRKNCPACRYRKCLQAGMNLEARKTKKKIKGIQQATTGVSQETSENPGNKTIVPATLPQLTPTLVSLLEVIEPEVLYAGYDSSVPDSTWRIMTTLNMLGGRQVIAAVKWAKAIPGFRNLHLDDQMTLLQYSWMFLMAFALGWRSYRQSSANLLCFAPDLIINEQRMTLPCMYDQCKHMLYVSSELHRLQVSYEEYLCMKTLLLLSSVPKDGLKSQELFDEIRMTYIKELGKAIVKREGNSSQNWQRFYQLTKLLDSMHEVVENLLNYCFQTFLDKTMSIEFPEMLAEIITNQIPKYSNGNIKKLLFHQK
Description: Displacement of [3H]dexamethasone from human recombinant glucocorticoid receptor expressed in insect cells after 24 hrs by scintillation proximity assay

[3] = target: T2, Glucocorticoid receptor
Description: Induction of nuclear translocation of human recombinant ProLabel-tagged glucocorticoid receptor expressed in CHO-K1 cells after 3 hrs by luminescence method

[4] = system: RAW264.7; experiment: cells; conditions: Mus musculus
Description: Antiinflammatory activity in mouse RAW264.7 cells assessed as inhibition of LPS-induced nitric oxide release preincubated for 15 mins followed by LPS challenge measured after 18 hrs by Griess assay

[5] = physchem
Description: Dissociation constant, pKa of the compound

| Structure (SMILES) | EC50 [1] [nM] | Ki [2] [nM] | EC50 [3] [nM] | IC50 [4] [nM] | pKa [5] |
| --- | --- | --- | --- | --- | --- |
| CC(C)CCN1C[C@@H]2C[C@H]3[C@@H]4C[C@H](F)C5=CC(=O)C=C[C@]5(C)[C@@]4(F)[C@@H](O)C[C@]3(C)[C@]2(C(=O)SCF)C1 | > 3000 | 4.8 | 57 | – | – |
| Cc1cccc(CN2C[C@@H]3C[C@H]4[C@@H]5C[C@H](F)C6=CC(=O)C=C[C@]6(C)[C@@]5(F)[C@@H](O)C[C@]4(C)[C@]3(C(=O)CO)C2)c1 | – | 0.52 | 11.3 | 0.3 | 7.27 |
| COC(=O)[C@@]12CN(Cc3ccccc3)C[C@@H]1C[C@H]1[C@@H]3C[C@H](F)C4=CC(=O)C=C[C@]4(C)[C@@]3(F)[C@@H](O)C[C@@]12C | – | 0.71 | 5.7 | – | 7.12 |
| C[C@]12C=CC(=O)C=C1[C@@H](F)C[C@H]1[C@@H]3C[C@H]4CN(Cc5ccc(Cl)cc5)C[C@@]4(C(=O)CO)[C@@]3(C)C[C@H](O)[C@@]12F | – | – | 1.3 | 0.25 | 6.72 |
| CC(=O)[C@@]12CN(Cc3cccc(Cl)c3)C[C@@H]1C[C@H]1[C@@H]3C[C@H](F)C4=CC(=O)C=C[C@]4(C)[C@@]3(F)[C@@H](O)C[C@@]12C | – | 0.57 | 7.7 | 1.4 | 6.9 |
| C[C@]12C=CC(=O)C=C1[C@@H](F)C[C@H]1[C@@H]3C[C@H]4CN(Cc5ccc6ccccc6n5)C[C@@]4(C(=O)CO)[C@@]3(C)C[C@H](O)[C@@]12F | – | 0.71 | 31.2 | 11.9 | 3.42 |
| C[C@]12C=CC(=O)C=C1[C@@H](F)C[C@H]1[C@@H]3C[C@H]4CN(Cc5ccc(CSc6ccc(O)cc6)cc5)C[C@@]4(C(=O)CO)[C@@]3(C)C[C@H](O)[C@@]12F | 1.6 | 0.62 | 2.1 | 0.44 | 6.95 |
| C[C@]12C=CC(=O)C=C1[C@@H](F)C[C@H]1[C@@H]3C[C@H]4CN(c5ccccc5)C[C@@]4(C(=O)CF)[C@@]3(C)C[C@H](O)[C@@]12F | – | 0.52 | 3.2 | 1.38 | 8.74 |
| C[C@]12C=CC(=O)C=C1[C@@H](F)C[C@H]1[C@@H]3C[C@H]4CN(CC5CC5)C[C@@]4(C(=O)CO)[C@@]3(C)C[C@H](O)[C@@]12F | – | – | 15.2 | – | 7.83 |
| C[C@]12C=CC(=O)C=C1[C@@H](F)C[C@H]1[C@@H]3C[C@H]4CN(Cc5ccccc5)C[C@@]4(C(=O)CF)[C@@]3(C)C[C@H](O)[C@@]12F | – | 0.52 | 3.4 | – | 6.87 |
| C[C@]12C=CC(=O)C=C1[C@@H](F)C[C@H]1[C@@H]3C[C@H]4CN(Cc5cccc(Cl)c5)C[C@@]4(C(=O)SCF)[C@@]3(C)C[C@H](O)[C@@]12F | > 3000 | – | 45 | – | – |
| Cc1ccc(CN2C[C@@H]3C[C@H]4[C@@H]5C[C@H](F)C6=CC(=O)C=C[C@]6(C)[C@@]5(F)[C@@H](O)C[C@]4(C)[C@]3(C(=O)CO)C2)cc1 | – | 0.52 | 8.4 | 0.16 | 7.11 |
| C[C@]12C=CC(=O)C=C1[C@@H](F)C[C@H]1[C@@H]3C[C@H]4CN(Cc5ccccc5)C[C@@]4(C(=O)CO)[C@@]3(C)C[C@H](O)[C@@]12F | – | 0.66 | 1.7 | 0.15 | 6.96 |
